What was measured:
[1] = test system: uterine weights; experiment: Uterine weight; conditions: 1 day of exposure
[2] = test system: HT-22 (murine hippocampal) cells; conditions: cited from earlier work; for neuroprotection against toxicity, in words: compared with βE2 or parent compound, ref Perez et al., 2005b; for neuroprotection of non-phenolic estrogens, in words: all of the structure-activity studies
[3] = test system: ERα; conditions: competitive binding; ref Perez et al. (2005b); cited from earlier work
[4] = test system: ERβ; conditions: competitive binding; ref Perez et al. (2005b); cited from earlier work
[5] = test system: HT-22 (murine hippocampal) cells; assay type: cell-based; conditions: insult not named
[6] = test system: HT-22 (murine hippocampal) cells; conditions: cited from earlier work
[7] = test system: SK-N-SH neuroblastoma cells; conditions: up to 200 nM; ref Green et al. (1997b); cited from earlier work
[8] = test system: HT-22 (murine hippocampal) cells; experiment: Neuroprotection against glutamate toxicity, calcein-AM viability assay; assay type: cell-based; conditions: 10 μM concentration, paradigm of Behl's group (1997)
[9] = test system: HT-22 cells; experiment: DCF assay of reactive oxygen species, glucose oxidase insult; assay type: cell-based; conditions: HT-22 cells insulted with glucose oxidase
[10] = test system: lipid peroxidation in rat brain homogenates; conditions: read-out: IC50 of lipid peroxidation seen by other groups; ref Hall et al., 1991; cited from earlier work

C[C@]12CC[C@@H]3c4ccc(O)cc4CC[C@H]3[C@@H]1CCC2=O [Compound E1, estrone]
increase of uterine weights [1]: 71%

C[C@]12CC(O)[C@@H]3c4ccc(O)cc4CC[C@H]3[C@@H]1CCC2=O (stereo partly shown) [Compound E1240]
neuroprotection against toxicity, in words [2]: neuroprotection was completely abolished

CC12CCC3c4ccc(O)cc4CCC3C1CCC2O (stereo not shown) [PS2]
neuroprotection against toxicity, in words [2]: reduced neuroprotective potencies

C[C@]12CC=C3c4ccc(O)cc4CC[C@H]3[C@@H]1CC[C@@H]2O [ZYC1]
ERα binding, in words [3]: did not drastically change the affinity
ERβ binding, in words [4]: did not drastically change the affinity

C[C@]12CC[C@@H]3c4ccc(O)cc4CC[C@H]3[C@@H]1CC1(CCCC1)C2=O [ZYC2]
neuroprotection against toxicity, in words [2]: did not enhance neuroprotection

CCC(C)c1c(O)ccc2c1CC[C@@H]1[C@@H]2CC[C@]2(C)C(=O)CC[C@@H]12 (stereo partly shown) [ZYC17]
ERα binding, in words [3]: completely inhibited estrogen receptor binding
ERβ binding, in words [4]: completely inhibited estrogen receptor binding

COc1cc2c(cc1C13CC4CC(CC(C4)C1)C3)[C@H]1CC[C@]3(C)[C@@H](O)CC[C@H]3[C@@H]1CC2 [ZYC23, 3-O-methyl analog of (17beta)-2-(1-adamantyl)estradiol]
neuroprotection against toxicity, in words [2]: failed to protect cells against toxicity induced cell death

Cc1c(O)c(C23CC4CC(CC(C4)C2)C3)cc2c1CC[C@@H]1[C@@H]2CC[C@]2(C)C(=O)CC[C@@H]12 [ZYC26, 2-(1-adamantyl)-4-methylestrone]
fold decrease in EC50 for protection against neurotoxicity, first value ([5]; first of two values given 'respectively'): approximately 9 fold
fold decrease in EC50 for protection against neurotoxicity, second value ([5]; second of two values given 'respectively'): ~4 fold
ERα binding, in words [3]: completely abolished the affinity
ERβ binding, in words [4]: completely abolished the affinity

C[C@]12CC[C@@H]3c4ccc(O)cc4CC[C@H]3[C@@H]1CC[C@@H]2OC(=O)c1ccccc1 [ZYC30]
neuroprotection against toxicity, in words [2]: decreased the potency of the parent compound

C#C[C@]1(O)CC[C@H]2[C@@H]3CCc4cc(OC)ccc4[C@H]3CC[C@@]21C [mestranol]
neuroprotection of non-phenolic estrogens, in words [2]: did not have protect effects

CC(=O)[C@H]1CC[C@H]2[C@@H]3CC[C@@H]4C[C@H](O)CC[C@]4(C)[C@H]3CC[C@]12C [pregnanolone]
protection against glutamate insult at high dose ([6]; 10 μM dose, ref Gursoy et al. (2001)): no protection
concentration of optimal protection against glutamate insult ([6]; ref Gursoy et al. (2001)): 500 nM

CC(=O)[C@H]1CC[C@H]2[C@@H]3CCC4=CC(=O)CC[C@]4(C)[C@H]3CC[C@]12C [progesterone]
neuroprotection against glutamate insult ([6]; 10 μM, ref Behl et al. (1997)): did not find 10 μM progestrone (P4) to be neuroprotective
protection against serum deprivation [7]: did not find progesterone to be protectiive

C#C[C@]1(O)CC[C@H]2[C@@H]3CCc4cc(OC5CCCC5)ccc4[C@H]3CC[C@@]21C [quinestrol]
neuroprotection of non-phenolic estrogens, in words [2]: did not have protect effects

C[C@]12CC[C@@H]3c4ccc(O)cc4CC[C@H]3[C@@H]1CC[C@H]2O [αE2]
ERα binding, in words [3]: less affinity
ERβ binding, in words [4]: less affinity

C[C@]12CC[C@@H]3c4ccc(O)cc4CC[C@H]3[C@@H]1CC[C@@H]2O [βE2, 17β-estradiol]
protection against glutamate toxicity at fixed concentration [8]: protective
decrease of ROS [9]: not able to significantly decrease ROS
IC50 [10]: 21 µM

From publication PMC3048764 (Brain research, 2010)
